These results are taken from US20260355323A1, “CEREBLON-RECRUITING BCL-XL/BCL-2 DUAL DEGRADERS” (University of Florida Research Foundation, Incorporated, priority 2022, published 2026).

The subject of assay [1] is RS4;11 acute lymphoblastic leukemia cells. Nature of the assay: Cell viability, tetrazolium-based MTS assay, RS4;11. The following applies: Homo sapiens, RS4;11, 48 h, read-out: Anti-Cancer Activity EC50 (48 hr), RS4. On the procedure:
(§1) Acute lymphoblastic leukemia cells (MOLT-4 and RS4;11) were incubated with increasing concentrations of Bcl-xL/Bcl-2 degraders for 48 h. Cell viability was measured by tetrazolium-based MTS assay.

The next assay relates to WI-38 NC. Nature of the assay: Senolytic activity, cell viability (PrestoBlue HS), WI-38 NC. The assay is classed as cell-based. The following applies: for EC50: Homo sapiens, 72 h. On the procedure:
WI-38 and HUVEC cells were incubated with increasing concentrations of degraders for 72 h. Cell viability was measured using PrestoBlue HS cell viability reagent.

The subject of assay [2] is MOLT-4 acute lymphoblastic leukemia cells. Nature of the assay: Cell viability, tetrazolium-based MTS assay, MOLT-4. The following applies: Homo sapiens, MOLT-4, 48 h; read-out: Anti-Cancer Activity EC50 (48 hr), MOLT-4. On the procedure: as §1
Background: Tetrazolium dyes change colour on reduction, which living cells bring about.

Structures are written as SMILES.

For orientation: EC50 means the concentration that produces a half-maximal response.

Turning to `C[C@@]1(CN2CCN(C(=O)CCCCCN3CCN(c4ccc5c(c4)CN(C4CCC(=O)NC4=O)C5=O)CC3)CC2)CCC(c2ccc(Cl)cc2)=C(CN2CCN(c3ccc(C(=O)NS(=O)(=O)c4ccc(N[C@H](CCN5CCCOCC5)CSc5ccccc5)c(S(=O)(=O)C(F)(F)F)c4)cc3)CC2)C1` (stereo partly drawn) [Compound 3, N-((4-(((R)-4-(1,4-oxazepan-4-yl)-1-(phenylthio)butan-2-yl)amino)-3-((trifluoromethyl)sulfonyl)phenyl)sulfonyl)-4-(4-(((4R)-4′-chloro-4-((4-(6-(4-(2-(2,6-dioxopiperidin-3-yl)-1-oxoisoindolin-5-yl)piperazin-1-yl)hexanoyl)piperazin-1-yl)methyl)-4-methyl-3,4,5,6-tetrahydro-[1,1′-biphenyl]-2-yl)methyl)piperazin-1-yl)benzamide], the EC50 was below 1 nM in assay [1], above 10000 nM in the assay with WI-38 NC and below 1 nM in assay [2].

Consider `CC1(CN2CCN(C(=O)CN3CCN(C(=O)CNc4ccc5c(c4)C(=O)N(C4CCC(=O)NC4=O)C5=O)CC3)CC2)CCC(c2ccc(Cl)cc2)=C(CN2CCN(c3ccc(C(=O)NS(=O)(=O)c4ccc(N[C@H](CCN5CCOCC5)CSc5ccccc5)c(S(=O)(=O)C(F)(F)F)c4)cc3)CC2)C1` (stereo partly drawn) [Compound 17, 4-(4-((4′-chloro-4-((4-(2-(4-((2-(2,6-dioxopiperidin-3-yl)-1,3-dioxoisoindolin-5-yl)glycyl)piperazin-1-yl)acetyl)piperazin-1-yl)methyl)-4-methyl-3,4,5,6-tetrahydro-[1,1′-biphenyl]-2-yl)methyl)piperazin-1-yl)-N-((4-(((R)-4-morpholino-1-(phenylthio)butan-2-yl)amino)-3-((trifluoromethyl)sulfonyl)phenyl)sulfonyl)benzamide], for which the values for the EC50 (in assay [1]; in the assay with WI-38 NC; in assay [2]) were below 1 nM, above 10000 nM and below 1 nM, respectively.

Turning to `C[C@@]1(CN2CC(CN3CCN(c4ccc5c(c4)CN(C4CCC(=O)NC4=O)C5=O)CC3)C2)CCC(c2ccc(Cl)cc2)=C(CN2CCN(c3ccc(C(=O)NS(=O)(=O)c4ccc(N[C@H](CCN5CCCOCC5)CSc5ccccc5)c(S(=O)(=O)C(F)(F)F)c4)cc3)CC2)C1` (stereo partly drawn) [Compound 24, N-((4-(((R)-4-(1,4-oxazepan-4-yl)-1-(phenylthio)butan-2-yl)amino)-3-((trifluoromethyl)sulfonyl)phenyl)sulfonyl)-4-(4-(((4R)-4′-chloro-4-((3-((4-(2-(2,6-dioxopiperidin-3-yl)-1-oxoisoindolin-5-yl)piperazin-1-yl)methyl)azetidin-1-yl)methyl)-4-methyl-3,4,5,6-tetrahydro-[1,1′-biphenyl]-2-yl)methyl)piperazin-1-yl)benzamide], the half-maximal effective concentration (EC50) in assay [1] is below 1 nM; with WI-38 NC, above 10000 nM; in assay [2], 1 to 10 nM.

As to `C[C@@]1(CN2CCN(CC#Cc3ccc4c(c3)CN(C3CCC(=O)NC3=O)C4=O)CC2)CCC(c2ccc(Cl)cc2)=C(CN2CCN(c3ccc(C(=O)NS(=O)(=O)c4ccc(N[C@H](CCN5CCCOCC5)CSc5ccccc5)c(S(=O)(=O)C(F)(F)F)c4)cc3)CC2)C1` (stereo partly drawn) [Compound 26, N-((4-(((R)-4-(1,4-oxazepan-4-yl)-1-(phenylthio)butan-2-yl)amino)-3-((trifluoromethyl)sulfonyl)phenyl)sulfonyl)-4-(4-(((4R)-4′-chloro-4-((4-(3-(2-(2,6-dioxopiperidin-3-yl)-1-oxoisoindolin-5-yl)prop-2-yn-1-yl)piperazin-1-yl)methyl)-4-methyl-3,4,5,6-tetrahydro-[1,1′-biphenyl]-2-yl)methyl)piperazin-1-yl)benzamide], the EC50 was 1 to 10 nM in assay [1], above 10000 nM in the assay with WI-38 NC and below 1 nM in assay [2].

As to `C[C@@]1(CN2CCC(CC#Cc3ccc4c(c3)CN(C3CCC(=O)NC3=O)C4=O)CC2)CCC(c2ccc(Cl)cc2)=C(CN2CCN(c3ccc(C(=O)NS(=O)(=O)c4ccc(N[C@H](CCN5CCCOCC5)CSc5ccccc5)c(S(=O)(=O)C(F)(F)F)c4)cc3)CC2)C1` (stereo partly drawn) [Compound 29, N-((4-(((R)-4-(1,4-oxazepan-4-yl)-1-(phenylthio)butan-2-yl)amino)-3-((trifluoromethyl)sulfonyl)phenyl)sulfonyl)-4-(4-(((4R)-4′-chloro-4-((4-(3-(2-(2,6-dioxopiperidin-3-yl)-1-oxoisoindolin-5-yl)prop-2-yn-1-yl)piperidin-1-yl)methyl)-4-methyl-3,4,5,6-tetrahydro-[1,1′-biphenyl]-2-yl)methyl)piperazin-1-yl)benzamide], the 50% effective concentration (EC50) in assay [1] was below 1 nM; in the assay on WI-38 NC, above 10000 nM; in assay [2], 1 to 10 nM.

On to `CN(CC#Cc1ccc2c(c1)CN(C1CCC(=O)NC1=O)C2=O)C[C@]1(C)CCC(c2ccc(Cl)cc2)=C(CN2CCN(c3ccc(C(=O)NS(=O)(=O)c4ccc(N[C@H](CCN5CCCOCC5)CSc5ccccc5)c(S(=O)(=O)C(F)(F)F)c4)cc3)CC2)C1` (stereo partly drawn) [Compound 37, N-((4-(((R)-4-(1,4-oxazepan-4-yl)-1-(phenylthio)butan-2-yl)amino)-3-((trifluoromethyl)sulfonyl)phenyl)sulfonyl)-4-(4-(((4R)-4′-chloro-4-(((3-(2-(2,6-dioxopiperidin-3-yl)-1-oxoisoindolin-5-yl)prop-2-yn-1-yl)(methyl)amino)methyl)-4-methyl-3,4,5,6-tetrahydro-[1,1′-biphenyl]-2-yl)methyl)piperazin-1-yl)benzamide], for which the values for the EC50 (in assay [1]; in the assay on WI-38 NC; in assay [2]) were 1 to 10 nM, above 10000 nM and below 1 nM, respectively.

Turning to `CC(C)N(CC#Cc1ccc2c(c1)CN(C1CCC(=O)NC1=O)C2=O)C[C@]1(C)CCC(c2ccc(Cl)cc2)=C(CN2CCN(c3ccc(C(=O)NS(=O)(=O)c4ccc(N[C@H](CCN5CCCOCC5)CSc5ccccc5)c(S(=O)(=O)C(F)(F)F)c4)cc3)CC2)C1` (stereo partly drawn) [Compound 38, N-((4-(((R)-4-(1,4-oxazepan-4-yl)-1-(phenylthio)butan-2-yl)amino)-3-((trifluoromethyl)sulfonyl)phenyl)sulfonyl)-4-(4-(((4R)-4′-chloro-4-(((3-(2-(2,6-dioxopiperidin-3-yl)-1-oxoisoindolin-5-yl)prop-2-yn-1-yl) (isopropyl)amino)methyl)-4-methyl-3,4,5,6-tetrahydro-[1,1′-biphenyl]-2-yl)methyl)piperazin-1-yl)benzamide], the values for the EC50 (in assay [1]; in the assay with WI-38 NC; in assay [2]) were 1 to 10 nM, above 10000 nM and 1 to 10 nM, respectively.

With `C[C@@]1(CN2CCN(CCC#Cc3ccc4c(c3)CN(C3CCC(=O)NC3=O)C4=O)CC2)CCC(c2ccc(Cl)cc2)=C(CN2CCN(c3ccc(C(=O)NS(=O)(=O)c4ccc(N[C@H](CCN5CCCOCC5)CSc5ccccc5)c(S(=O)(=O)C(F)(F)F)c4)cc3)CC2)C1` (stereo partly drawn) [Compound 40, N-((4-(((R)-4-(1,4-oxazepan-4-yl)-1-(phenylthio)butan-2-yl)amino)-3-((trifluoromethyl)sulfonyl)phenyl)sulfonyl)-4-(4-(((4R)-4′-chloro-4-((4-(4-(2-(2,6-dioxopiperidin-3-yl)-1-oxoisoindolin-5-yl)but-3-yn-1-yl)piperazin-1-yl)methyl)-4-methyl-3,4,5,6-tetrahydro-[1,1′-biphenyl]-2-yl)methyl)piperazin-1-yl)benzamide], the concentration giving a half-maximal response (EC50) in assay [1] was below 1 nM; in the assay on WI-38 NC it was above 10000 nM; in assay [2], below 1 nM.

Turning to `C[C@@]1(CN2CC(CN3CCCN(c4ccc5c(c4)CN(C4CCC(=O)NC4=O)C5=O)CC3)C2)CCC(c2ccc(Cl)cc2)=C(CN2CCN(c3ccc(C(=O)NS(=O)(=O)c4ccc(N[C@H](CCN5CCCOCC5)CSc5ccccc5)c(S(=O)(=O)C(F)(F)F)c4)cc3)CC2)C1` (stereo partly drawn) [Compound 45, N-((4-(((R)-4-(1,4-oxazepan-4-yl)-1-(phenylthio)butan-2-yl)amino)-3-((trifluoromethyl)sulfonyl)phenyl)sulfonyl)-4-(4-(((4R)-4′-chloro-4-((3-((4-(2-(2,6-dioxopiperidin-3-yl)-1-oxoisoindolin-5-yl)-1,4-diazepan-1-yl)methyl)azetidin-1-yl)methyl)-4-methyl-3,4,5,6-tetrahydro-[1,1′-biphenyl]-2-yl)methyl)piperazin-1-yl)benzamide], the EC50 in assay [1] and in assay [2] was 1 to 10 nM in each case. Moreover, the “Senolytic Activity EC50 (72 hr), WI-38 NC” value in the assay with WI-38 NC is reported as “++ (100-10 μM)”.

`C[C@@]1(CN2CCC(CN3CCN(c4ccc(C(=O)N[C@H]5CCC(=O)NC5=O)cc4)CC3)CC2)CCC(c2ccc(Cl)cc2)=C(CN2CCN(c3ccc(C(=O)NS(=O)(=O)c4ccc(N[C@H](CCN5CCCOCC5)CSc5ccccc5)c(S(=O)(=O)C(F)(F)F)c4)cc3)CC2)C1` [Compound 139, N-((4-(((R)-4-(1,4-oxazepan-4-yl)-1-(phenylthio)butan-2-yl)amino)-3-((trifluoromethyl)sulfonyl)phenyl)sulfonyl)-4-(4-(((R)-4′-chloro-4-((4-((4-(4-(((S)-2,6-dioxopiperidin-3-yl)carbamoyl)phenyl)piperazin-1-yl)methyl)piperidin-1-yl)methyl)-4-methyl-3,4,5,6-tetrahydro-[1,1′-biphenyl]-2-yl)methyl)piperazin-1-yl)benzamide]: the EC50 in assay [1] and in assay [2] was 1 to 10 nM throughout.

As to `C[C@@]1(CN2CCN(c3ccc(NC4CCC(=O)NC4=O)cc3F)CC2)CCC(c2ccc(Cl)cc2)=C(CN2CCN(c3ccc(C(=O)NS(=O)(=O)c4ccc(N[C@H](CCN5CCCOCC5)CSc5ccccc5)c(S(=O)(=O)C(F)(F)F)c4)cc3)CC2)C1` (stereo partly drawn) [Compound 140, N-((4-(((R)-4-(1,4-oxazepan-4-yl)-1-(phenylthio)butan-2-yl)amino)-3-((trifluoromethyl)sulfonyl)phenyl)sulfonyl)-4-(4-(((4R)-4′-chloro-4-((4-(4-((2,6-dioxopiperidin-3-yl)amino)-2-fluorophenyl)piperazin-1-yl)methyl)-4-methyl-3,4,5,6-tetrahydro-[1,1′-biphenyl]-2-yl)methyl)piperazin-1-yl)benzamide], the EC50 in assay [1] was in the range of 10 to 100 nM; in assay [2], 1 to 10 nM.
